From publication PMC6581923 (Journal of Molecular Neuroscience, 2018)
Entries after “also recorded” stand apart in the source; their conditions may differ.

Experiments:
[1] = test system: retina (BCCAO-induced retinopathy); assay: Retinal layer thickness / morphology after bilateral carotid artery occlusion (BCCAO), eye drops; format: in vivo, rat (male); conditions: for Retinoprotective efficacy of eye drops, overall / compared with untagged peptide: topical eye drops in SOCB
Procedure: Adult male rat litters were housed in the animal facility in individual cages in a 12 h light-dark cycle with food and water ad libitum. Animal housing, care and application of experimental procedures were in accordance with institutional guidelines under approved protocols (No: BA02/2000–26/2017, University of Pecs). Under isoflurane anesthesia, common carotid arteries were exposed on both sides through a midline incision and then ligated with a 3–0 filament. A group of animals (sham group) underwent all steps of the operating procedure except ligation of the carotid arteries. Immediately following the operation, the right eye of the animals was treated with derivatives of PACAP (PACAP-TAT /n = 17/ or VIP-TAT /n = 17/) eye drops (1 μg/drop). Dose and schedule of the eye drop treatments were based on our previous experiments (Werling et al. [2016]). In the experiment for histological analysis, the different derivatives were dissolved in benzalkonium solution for ophthalmic use (solutio ophthalmica cum benzalkonio (SOCB)). The left eye, serving as a control, was treated with vehicle containing neither PACAP-TAT nor VIP-TAT. Animals were treated for five consecutive days, twice a day with one drop of drug, under brief isoflurane anesthesia (max. 5 min).
Fourteen days after the operation, rats (n = 10 SHAM and n = 24 BCCAO) were killed with anesthetic and the eyes were processed for histology. The eyes were removed and the retinas were solved in phosphate buffered saline (PBS), fixed in 4% paraformaldehyde dissolved in 0.1 M phosphate buffer (PB) (Sigma, Budapest, Hungary) and embedded in Durcupan ACM resin (Sigma, Budapest, Hungary). Retinas were cut at 2 μm and stained with toluidine blue dye (Sigma, Hungary). Sections were mounted in DPX medium (Sigma, Hungary) and photographs were taken with a digital CCD camera using the Spot program. Central retinal areas within 1 mm from the optic nerve were used (n = 5 measurements from one tissue block). The following parameters were measured: (i) cross-section of the retina from the outer limiting membrane (OLM) to the inner limiting membrane (ILM), (ii) the width of individual retinal layers (outer nuclear layer [ONL], outer plexiform layer [OPL], inner nuclear layer [INL], inner plexiform layer [IPL]), (iii) the number of cells/100 μm section length in the GCL, and the (iv) number of cells/[…]. Results are presented as mean ± SEM. Statistical comparisons were made using the two-way ANOVA test followed by Tukey’s post hoc analysis.
(§1) Fig. 4 Quantification of retinal layers in SHAM+SOCB, in SHAM+PACAP-TAT, in BCCAO+SOCB, and in BCCAO+PACAP-TAT animals; the right eye was treated with PACAP-TAT eye drops, the left eye served as controls receiving only SOCB. Comparison of all retinal layers (a–e). […] Statistical significance (*p < 0.05 vs. SHAM+SOCB retinas, #p < 0.05 vs. BCCAO+SOCB retinas) was calculated by two-way ANOVA followed by Fischer’s post hoc test
as §1, with “6” for “4”, “SHAM+VIP-TAT,” for “SHAM+PACAP-TAT,”, “BCCAO+VIP-TAT” for “BCCAO+PACAP-TAT”, “VIP-TAT” for “PACAP-TAT”, “control” for “controls”

[2] = Efficiency of Traversing Eye to Retina (EtE) of FITC labeled peptides given in eye drops; format: in vivo, rat (male)
Procedure: In order to trace the drugs, peptides were labeled with fluorescein isothiocyanate (FITC) using a FITC Protein Labeling Kit from ChangRu Biotech Ltd. (Guangzhou, China) according to the manufacturer’s protocol. After the labeling reaction, gel filtration was used to remove the free FITC. In order to determine the amount of the residual free FITC, the peptides were submitted to ultrafiltration using Amicon Ultra – 0.5 mL (Millipore, USA) with a molecular sieve of 2000 Da. After centrifugation (1000×g, 10 min) the peptide was subjected to fluorescence measurements performed with the multi-wavelength scanner Victor 3 (GE, USA) at the excitation of 495 nm and the emission of 520 nm. Protein concentrations were determined using the K4000 Bradford Protein Quantification Kit (Innovative, Guangzhou, China). The labeling efficiency was calculated using the following formula: label efficiency (LE) = fluorescence value (FV)/peptide mass (mol) (PM), representing the fluorescence intensity (AU) per mol of peptide (mol).
Male rats with body weight from 160 to 180 g were purchased from the Medical and Experimental Animal Center (Guangdong, China). Rats were randomly assigned to one of the experimental groups (7 rats per group) and subjected to eye drops with FITC labeled peptides (100 nmol/kg) and PBS as control. Rats were sacrificed by anesthesia 2 h after the eye drop administration and the retina was separated, weighed, washed three times with PBS and divided into two parts. One part was prepared on the glass slide with glycerin and subjected to fluorescence microscopic observation of FITC with 495 nm excitation/520 nm emission. All images, focused on the left upper regions of the retina, were taken with 500 ms exposure time. The other part of the retina was subjected to grinding and ultrasonication in PBS at a concentration of 100 mg weight tissue per milliliter of PBS. The supernatant was collected by centrifugation and the fluorescence intensity in the supernatant (100 uL) was determined. The valid fluorescence intensity (FI) for each sample treated with FITC labeled peptide was corrected by subtracting the fluorescence value of the sample treated with PBS, which was used as a blank background. The Efficiency of Traversing Eye to Retina (EtE) was expressed as the percentages of the FITC labeled peptide mass in the retina to the total FITC labeled peptide mass. The EtE was calculated using the following formula: EtE = tFI/LE/PW × 100% (tFI presents the fluorescence intensity of retina (arbitration unit, AU); LE presents the label efficiency of each peptide which has been determined above; PW presents the peptide mass (mole)).
Fig. 1 The efficiency of FITC labeled PACAP/PACAP-TAT (a, b) and VIP/VIP-TAT (c, d) traversing to retina given in eye drops. The retina was separated 2 h after the eye drops and submitted to the fluorescence microscopic observation of FITC fluorescence signal (A, C) and the calculation of Efficiency of Traversing Eye to Retina (EtE) (b, d). The data are means ± SEM of four experiments

For `CC[C@H](C)[C@H](NC(=O)[C@H](CO)NC(=O)[C@H](CC(N)=O)NC(=O)[C@H](CC(C)C)NC(=O)[C@H](Cc1ccc(O)cc1)NC(=O)[C@H](CCCCN)NC(=O)[C@H](CCCCN)NC(=O)[C@@H](NC(=O)[C@H](C)NC(=O)[C@H](CCSC)NC(=O)[C@H](CCC(N)=O)NC(=O)[C@H](CCCCN)NC(=O)[C@H](CCCNC(=N)N)NC(=O)[C@H](CC(C)C)NC(=O)[C@H](CCCNC(=N)N)NC(=O)[C@@H](NC(=O)[C@H](Cc1ccc(O)cc1)NC(=O)[C@H](CC(N)=O)NC(=O)[C@H](CC(=O)O)NC(=O)[C@@H](NC(=O)[C@H](Cc1ccccc1)NC(=O)[C@@H](NC(=O)[C@H](C)NC(=O)[C@H](CC(=O)O)NC(=O)[C@H](CO)NC(=O)[C@@H](N)Cc1c[nH]cn1)C(C)C)[C@@H](C)O)[C@@H](C)O)C(C)C)C(=O)N[C@@H](CC(C)C)C(=O)N[C@@H](CC(N)=O)C(=O)NCC(=O)N[C@@H](CCCNC(=N)N)C(=O)N[C@@H](CCCCN)C(=O)N[C@@H](CCCCN)C(=O)N[C@@H](CCCNC(=N)N)C(=O)N[C@@H](CCCNC(=N)N)C(=O)N[C@@H](CCC(N)=O)C(=O)N[C@@H](CCCNC(=N)N)C(=O)N[C@@H](CCCNC(=N)N)C(=O)N[C@@H](CCCNC(=N)N)C(=O)N1CCC[C@H]1C(=O)N[C@@H](CCC(N)=O)C(=O)O` [VIP-TAT], the “OPL preservation after BCCAO” value ([1]; BCCAO + eye drops, OPL almost disappeared in several BCCAO-induced degenerated retinas) was “preserved”, the “Retinal degeneration in light microphotographs after BCCAO” value ([1]; BCCAO + eye drops, toluidine blue sections, 14 days, severe degeneration in BCCAO+SOCB) was “only mild degeneration” and the “Retinoprotective efficacy of eye drops, overall / compared with untagged peptide” value ([1]; BCCAO) was “attenuate ischemic retinal degeneration via the PAC1 receptor”. The “Retinoprotective efficacy of eye drops, overall / compared with untagged peptide” value ([1]; BCCAO, listed as TAT-bound VIP) was “a similar degree of protection”, the “Retinoprotective efficacy of eye drops, overall / compared with untagged peptide” value ([1]; BCCAO, listed as VIP bound to TAT peptide) was “could effectively traverse the ocular barriers and exert a neuroprotective effect in the retina; also recorded: much stronger retinoprotective effects when bound to TAT” and the “Retinal layer thickness (OLM-ILM, ONL, OPL, INL, IPL) after BCCAO” value ([1]; BCCAO, eye drops 1 μg/drop, twice a day, five consecutive days, in SOCB, right eye, left eye SOCB control, 14 days, p < 0.05 vs. BCCAO+SOCB) was “significant amelioration in all retinal layers; also recorded: improved the structure of all the retinal layers”. For the same molecule, the “Change of retinal thickness in sham animals” value ([1]; eye drops alone in sham animals, 1 μg/drop, twice a day, five consecutive days, in SOCB, histology 14 days after operation) was “did not cause any changes in the retinal thickness”, the “Efficiency of Traversing Eye to Retina (EtE)” value ([2]; FITC labeled peptides, eye drops 100 nmol/kg, retina separated 2 h after, fluorescence 495 nm excitation/520 nm emission, % of FITC labeled peptide mass in retina to total, means ± SEM of four experiments (7 rats per group)) was 3.05 ± 0.58% and the “EtE relative to the untagged peptide” value ([2]; PACAP-TAT/VIP-TAT vs PACAP/VIP, respectively, eye drops 100 nmol/kg, 2 h) was “about three-fold that of PACAP/VIP”. The “FITC fluorescence density per area unit in the retina” value ([2]; fluorescence microscopy of retina 2 h after eye drops of FITC labeled peptides (100 nmol/kg), vs PACAP/VIP) was “much higher than in retinas treated with eye drops of PACAP/VIP”.
